In patent publication US8597686B2, “Porous cellulose aggregate and formed product composition comprising the same” (Asahi Kasei Chemicals Corporation, priority 2004, dated 2013):

Tests used:
[1] = Elution test of ethenzamide; assay type: physicochemical; settings: molded product at 50 MPa or pulverized bulk drug
Experimental: 0.2 g of the obtained mixed powder was weighed and put in a mortar (manufactured by Kikusui Seisakusho, Ltd. using materials SUS2, 3) and compressed with a round plane mallet (manufactured by Kikusui Seisakusho, Ltd. using materials SUS2, […], trade name, PCM-1A, compression rate 1 cm/min) and after held at the aimed pressure for 10 seconds, a columnar molded product was taken out. […]
1 g of Cellulose Aggregate G was added to 10 mL of a solution in which ethenzamide (manufactured by API Co., Ltd., a powder grade was pulverized with a small size pulverizer) was dissolved in ethanol (manufactured by Wako Pure Chemical Industries, Ltd., special grade chemical) in a ratio of 5:95 and stirred by a magnetic stirrer for three minutes. The obtained dispersion was introduced into an evaporator and completely deprived of solvent to obtain a powder sample.
Similarly operating as in Example 14 except that the pressure at the time of preparing a columnar molded product from this powder was changed to 50 MPa and elution test was performed.
Only the ethenzamide pulverized by the method of Example 15 was subjected to elution test.

[2] = Reactivity with pharmacological agent (aspirin decomposition ratio on storage); assay type: physicochemical; settings: 60° C., airtight, two weeks

| Dissolution Rate after 1 hour [1] [%] | aspirin decomposition ratio [2] [%] | SMILES |
| --- | --- | --- |
| 9 |  | CCOc1ccccc1C(N)=O [Bulk Ethenzamide, ethenzamide] |
|  | 15 | CC(=O)Oc1ccccc1C(=O)O [aspirin, Aspirin] |
